The values that follow come from ChEMBL document CHEMBL1122684, “The 3,4-catechol derivative of propranolol, a minor dihydroxylated metabolite” (J Med Chem, 1984).

Structures can show the parent of a compound that is named as a salt.

Assay [1] addresses Beta-1 adrenergic receptor (Cavia porcellus, UniProt B0FL73). Description: Compound was evaluated for competitive antagonism of beta-1 adrenergic receptor in guinea pig atria measured as pA2 (-log KB). Type of assay: functional. As to conditions: read-out: pA2 (converted).
For assay [2], the target named is Beta-2 adrenergic receptor (Rattus norvegicus) (UniProt P10608). Kind of assay: Compound was evaluated for competitive antagonism of beta-2 adrenergic receptor in rat uterus measured as pA2 (-log KB).
Beta-2 adrenergic receptor (Rattus norvegicus), sequence (P10608 whole entry, looked up): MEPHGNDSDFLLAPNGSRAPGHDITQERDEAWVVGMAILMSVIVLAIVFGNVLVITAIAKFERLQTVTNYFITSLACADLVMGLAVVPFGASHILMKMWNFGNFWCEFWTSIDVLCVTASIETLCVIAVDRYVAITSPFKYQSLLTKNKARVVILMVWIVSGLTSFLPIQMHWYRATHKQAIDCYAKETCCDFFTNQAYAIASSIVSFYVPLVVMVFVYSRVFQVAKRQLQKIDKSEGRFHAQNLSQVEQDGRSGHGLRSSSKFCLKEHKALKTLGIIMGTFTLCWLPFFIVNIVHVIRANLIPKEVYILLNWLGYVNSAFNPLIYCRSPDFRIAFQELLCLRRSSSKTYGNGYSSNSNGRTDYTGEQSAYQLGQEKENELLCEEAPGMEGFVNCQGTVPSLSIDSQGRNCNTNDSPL

Beta-1 adrenergic receptor, sequence (B0FL73 whole entry): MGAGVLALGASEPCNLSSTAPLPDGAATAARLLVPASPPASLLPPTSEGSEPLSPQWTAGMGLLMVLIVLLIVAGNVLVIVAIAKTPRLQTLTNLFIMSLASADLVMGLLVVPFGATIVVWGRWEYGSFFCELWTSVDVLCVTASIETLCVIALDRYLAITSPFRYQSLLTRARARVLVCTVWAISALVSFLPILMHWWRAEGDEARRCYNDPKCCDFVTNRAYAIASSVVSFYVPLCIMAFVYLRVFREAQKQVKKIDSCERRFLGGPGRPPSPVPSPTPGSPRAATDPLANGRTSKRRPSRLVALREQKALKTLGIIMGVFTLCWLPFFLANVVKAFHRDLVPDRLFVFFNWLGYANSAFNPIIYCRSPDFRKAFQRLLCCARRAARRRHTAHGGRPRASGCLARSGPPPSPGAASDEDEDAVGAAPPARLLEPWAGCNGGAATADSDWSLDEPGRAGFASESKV

As for `CC(C)NCC(O)COc1ccc(O)c2ccccc12` (centres undefined) [4-HYDROXYPROPRANOLOL SULFATE], the Kb in assay [1] was 5.75 nM; in assay [2], 2.4 nM.

For the compound `CC(C)NCC(O)COC1=CC(=O)C(=O)c2ccccc21` (centres undefined), the Kb in assay [1] is 50.1 nM; in assay [2], 29.5 nM.
